For orientation: ED50 means the dose that gives a 50% effect, or the effect in half of the subjects.

Results on 14 compounds are retold here after patent US7112612B2, “N-alkylated GABA compounds, processes for their preparation and their use as medicaments” (UCB S.A., priority 2000, dated 2006).

SMILES strings stand for the structures.

In this test the test system is genetically sound-sensitive mice (audiogenic seizures). The test is described as follows: audiogenic seizures test in sound-susceptible mice. Type of test: in vivo. Particulars: Mus musculus, ip, 1 h; dose producing 50% protection against clonic convulsions relative to control; intraperitoneally 60 minutes before induction of audiogenic seizures (90 dB, 10–20 kHz, 30 seconds); Probit Analysis; read-out: Clonic Convulsion (ED50). An excerpt:
The potent activity of the compounds of formula (I) or (II), or their pharmaceutically acceptable salts, as anticonvulsants was evidenced by audiogenic seizures test induced in sound-susceptible mice. These examples illustrate the invention without in any way limiting its scope. The objective of the following pharmacological test is to evaluate the anticonvulsant potency of a compound in sound-susceptible mice, a genetic animal model with reflex seizures. In this model of primary generalised epilepsy, seizures are evoked without electrical or chemical stimulation and the seizure types are, at least in part, similar in their clinical phenomenology to seizures occurring in man (Löscher W. & Schmidt D., Epilepsy Res. (1998), 2, p. 145–181; Buchhalter J. R., Epilepsia (1993), 34, S31–S41). The results obtained with the tested compounds of formula (I) and (II) show a strong pharmacological effect (see Table 4).
In order to study the activity of the compounds of formula (I) and (II) including the (S) and (R) forms of ethyl 4-{[1-(aminocarbonyl)propyl]amino}butanoate, as anticonvulsant, the applicant performed out a series of experiments based on the audiogenic seizures test in mice.
The objective of the following pharmacological test is to evaluate the anticonvulsant potency of a compound in sound-susceptible mice, a genetic animal model with reflex seizures. In this model of primary generalised epilepsy, seizures are evoked without electrical or chemical stimulation and the seizure types are, at least in part, similar in their clinical phenomenology to seizures occurring in man (Löscher W. and Schmidt D., Epilepsy Res. (1998), 2, p. 145–181; Buchhalter J. R., Epilepsia (1993), 34, S31–S41).
Male or female genetically sound-sensitive mice (14–28 g; N=10), derived from a DBA (Dilute Brown Agouti) strain originally selected by Dr. Lehmann of the Laboratory of Acoustic Physiology (Paris) and bred in the UCB Pharma Sector husbandry unit since 1978, were used. The experimental design consisted of several groups, one group receiving the vehicle control and the other groups different doses of the test-compound. The compounds were administered intraperitoneally 60 minutes before the induction of audiogenic seizures.
For testing, the animals were placed in small cages, one mouse per cage, in a sound-attenuated chamber. After a period of orientation of 30 seconds, the acoustic stimulus (90 dB, 10–20 kHz) was delivered for 30 seconds via loud speakers positioned above each cage; During this interval, the mice were observed and the presence of the 3 phases of the seizure activity, namely wild running, clonic and tonic convulsions, was recorded. The proportion of mice protected against wild running, clonic and tonic convulsions, respectively, was calculated.
For active compounds, an ED50 value, i.e. the dose producing 50% protection relative to the control group, together with 95% confidence limits, was calculated using a Probit Analysis (SAS/STATR Software, Version 6.09, PROBIT procedure) of the proportions of protected mice for each of the 3 phases of the seizure activity.
On to `CCOC(=O)CCCNC(CC)C(N)=O` (racemic) [C, ethyl 4-{[1-(aminocarbonyl)propyl]amino}butanoate], for which the ED50 was determined as 320 µmol/kg.

On to `CC[C@H](NCCCC(=O)OCc1ccccc1)C(N)=O` [Compound N, benzyl 4-{[(1S)-1-(aminocarbonyl)propyl]amino)butanoate], for which the ED50 was 220 µmol/kg.

In the case of `CCOC(=O)CCCN[C@@H](CC)C(N)=O` [D, ethyl 4-{[(1S)-1-(aminocarbonyl)propyl]amino}butanoate], the ED50 amounted to 68 µmol/kg.

Take `CC[C@H](NCCCC(=O)OC)C(N)=O` [F, methyl 4-{[(1S)-1-(aminocarbonyl)propyl]amino}butanoate]: the 50% effective dose (ED50) was 160 µmol/kg.

On to `CC[C@H](NCCCC(=O)OC(C)C)C(N)=O` [G, isopropyl 4-{[(1S)-1-(aminocarbonyl)propyl]amino}butanoate], for which the ED50 is 150 µmol/kg.

As to `CCC(NCCCC(=O)OC(C)(C)C)C(N)=O` [H, tertiobutyl 4-{[(1S)-1-(aminocarbonyl)propyl]amino}butanoate], the ED50 amounted to 520 µmol/kg.

For the compound `CC[C@H](NCCCC(=O)OCCC12CC3CC(CC(C3)C1)C2)C(N)=O` [I, 2-(1-adamantyl)ethyl 4-{[(1S)-1-(aminocarbonyl)propyl]amino}butanoate], the ED50 is 130 µmol/kg.

As for `CC[C@H](NCCCC(=O)OC1CCCC1)C(N)=O` [J, cyclopentyl 4-{[(1S)-1-(aminocarbonyl)propyl]amino}butanoate], the median effective dose (ED50) is 340 µmol/kg.

Regarding `CCCCOC(=O)CCCN[C@@H](CC)C(N)=O` [K, butyl 4-{[(1S)-1-(aminocarbonyl)propyl]amino}butanoate], the ED50 stood at 1000 µmol/kg.

Consider `CCCCCCCCOC(=O)CCCN[C@@H](CC)C(N)=O` [L, octyl 4-{[(1S)-1-(aminocarbonyl)propyl]amino}butanoate], for which the median effective dose (ED50) amounted to 160 µmol/kg.

Regarding `CC[C@H](NCCCC(=O)OCC(C)C)C(N)=O` [M, isobutyl 4-{[(1S)-1-(aminocarbonyl)propyl]amino}butanoate], the median effective dose (ED50) came to 360 µmol/kg.

For `CCCC(CCC)COC(=O)CCCN[C@@H](CC)C(N)=O` [O, 2-propylpentyl 4-{[(1S)-1-(aminocarbonyl)propyl]amino}butanoate], the ED50 came to 120 µmol/kg.

Consider `CCCOC(=O)CCCN[C@@H](CC)C(N)=O` [P, propyl 4-{[(1S)-1-(aminocarbonyl)propyl]amino}butanoate], for which the ED50 was 200 µmol/kg.

With `CC[C@H](NCCCC(=O)SC(C)C)C(N)=O` [W, S-isopropyl 4-{[(1S)-1-(aminocarbonyl)propyl]amino}butanethioate], the ED50 worked out at 540 µmol/kg.
